Where a name gives a salt, the structure may show the parent alone.

One data set concerns the target T1, hSK3 channels (Homo sapiens, UniProt Q9UGI6).
T1 construct: expressed in transfected cells; host or cells: HEK293
The experiment in a line: Whole-cell patch-clamp recording of SK3 current in HEK293 cells expressing hSK3 channels. Format: cell-based. The following applies: current at −75 mV, free Ca2+ 0.3-0.4 μM, room temperature, read-out: Ki value (concentration required for decreasing the baseline current to 50% of the initial current). The method, then: The ionic current through small-conductance Ca^2+-activated K^+ channels (SK channels, subtype 3) was recorded using the whole-cell configuration of the patch-clamp technique.
HEK293 tissue culture cells expressing hSK3 channels were grown in DMEM (Dulbecco's Modified Eagle Medium) supplemented with 10% FCS (foetal calf serum) at 37° C. in 5% CO2. At 60-80% confluency, cells were harvested by trypsin treatment and seeded on cover slips.
Cells plated on coverslips are placed in a 15 μl perfusion chamber (flowrate ˜1 ml/min) mounted on an inverted microscope placed on a vibration-free table in a grounded Faraday cage. The experiments were performed at room temperature (20-22° C.). […] Data were stored directly on the hard-disk and analysed by IGOR software (Wavemetrics, Lake Oswega, Oreg., USA).
The whole-cell configuration of the patch-clamp technique was applied. […] Cell capacitance was electronically compensated and the resistance between the pipette and the cell interior (the series resistance, R^5) was measured and compensated for. […]
The intracellular (pipette) solution contained: 154 mM KCl, 10 mM HEPES, 10 mM EGTA. Concentrations of CaCl2 and MgCl2 needed to obtain the desired free concentrations of Ca^2+ (0.3-0.4 μM, Mg^2+ always 1 mM) were calculated by EqCal software (Cambridge, UK) and added. […]
(In patch-clamp work, channel activity is measured electrically.)
For `N#CCCN(Cc1ccccc1)c1nc(NCc2ccc(Cl)cc2)c2ccccc2n1` [Example 8, N^2-Benzyl-N^4-(4-chlorobenzyl)-N^2-(cyanoethyl)quinazoline-2,4-diamine], the IC50 came to 300 nM.

Tested on in another data set: not given
Assay: not given
Conditions: not given
As a reminder, the melting point is the temperature of the solid-liquid transition. Molecule `Clc1ccc(CNc2nc(NCc3ccc(Cl)cc3)c3ccccc3n2)cc1` (as salt: HCl) [Example 1, N^2,N^4-Bis(4-chlorobenzyl)quinazoline-2,4-diamine] yielded a melting point of 263 to 264 °C.
Turning to `Fc1ccc(CNc2nc(NCc3ccc(F)c(F)c3)c3ccccc3n2)cc1F` (as salt: HCl) [Example 2, N^2,N^4-Bis(3,4-difluorobenzyl)quinazoline-2,4-diamine], the melting point lay within 275 to 276 °C.
Still for that read-out and setting: the value for `Clc1ccc(CNc2nc(NC3CCCc4ccccc43)c3ccccc3n2)cc1` (centres unmarked) (as salt: HCl) [Example 11, N^2-(4-Chlorobenzyl)-N^4-(1,2,3,4-tetrahydronaphthalen-1-yl)quinazoline-2,4-diamine] was 166 to 167 °C; that for `NCc1cccc(CNc2nc(NCc3ccc(F)c(F)c3)c3ccccc3n2)c1` [Example 3, N^2-(3-Aminomethylbenzyl)-N^4-(3,4-difluorobenzyl)quinazoline-2,4-diamine] was 148 to 149 °C; that for `CN(C)c1ccc(CNc2nc(NCc3ccc(F)c(F)c3)nc3ccccc23)cc1` [Example 5, N^2-(3,4-Difluorobenzyl)-N^4-(4-dimethylaminobenzyl)quinazoline-2,4-diamine] was 59 to 60 °C.
On the same count and under the same terms, the value for `Clc1ccc(CNc2nc(N3CCCCC3c3ccccc3)nc3ccccc23)cc1` (centres unmarked) [Example 6, (4-Chlorobenzyl)-[2-(2-phenylpiperidin-1-yl)quinazolin-4-yl]amine] was 86 to 87 °C.
On the same count and under the same terms, the value for `OCCN(Cc1ccccc1)c1nc(NCc2ccc(Cl)cc2)c2ccccc2n1` [Example 7, N^2-Benzyl-N^4-(4-chlorobenzyl)-N^2-(hydroxyethyl)quinazoline-2,4-diamine] was 188 to 190.5 °C.

(Values after US20090048278A1, “Novel Quinazoline-2,4-Diamine Derivatives and Their Use as Modulators of Small-Conductance Calcium-Activated Potassium Channels” (priority 2005, published 2009).)
